Laboratory results reported in ChEMBL document CHEMBL2412982, “A medicinal chemists' guide to the unique difficulties of lead optimization for tuberculosis” (2013).

Legend:
[1] = T>MIC in Mycobacterium tuberculosis infected mouse; assay type: functional
[2] = fAUC/MIC in Mycobacterium tuberculosis infected mouse; assay type: functional
[3] = Cmax/MIC in Mycobacterium tuberculosis infected mouse; assay type: functional
[4] = fT>MIC in Mycobacterium tuberculosis infected mouse; assay type: functional
[5] = fCmax/MIC in Mycobacterium tuberculosis infected mouse; assay type: functional
[6] = AUC/MIC in Mycobacterium tuberculosis infected mouse; assay type: functional, Plasma

Row | SMILES | %T>MIC [1] | fAUC/MIC [2] | Ratio [3] | fT>MIC [4] | fCmax/MIC [5] | RatioAUC/MIC [6]
1 | CC(C)/N=c1\cc2n(-c3ccc(Cl)cc3)c3ccccc3nc-2cc1Nc1ccc(Cl)cc1 [CLOFAZIMINE] | 0% | <1 | 1 | 0% | 0.02 | 20
2 | COc1c(N2C[C@@H]3CCCN[C@@H]3C2)c(F)cc2c(=O)c(C(=O)O)cn(C3CC3)c12 [MOXIFLOXACIN] | 100% | 53 | 17 | 80% | 10 | 88
3 | O=[N+]([O-])c1cn2c(n1)OC[C@@H](OCc1ccc(OC(F)(F)F)cc1)C2 [PRETOMANID] | 58% | 16 | 20 | 21% | 2 | 166
4 | CO[C@H]1/C=C/O[C@@]2(C)Oc3c(C)c(O)c4c(O)c(c(/C=N/N5CCN(C)CC5)c(O)c4c3C2=O)NC(=O)/C(C)=C\C=C\[C@H](C)[C@H](O)[C@@H](C)[C@@H](O)[C@@H](C)[C@H](OC(C)=O)[C@@H]1C [RIFAMPIN] | 100% | 300 | 100 | 100% | 20 | 1500
5 | CC[C@@H](CO)NCCN[C@@H](CC)CO [ETHAMBUTOL] | 35% | 25 | 11 | 25% | 8 | 33
6 | NC(=O)c1cnccn1 [PYRAZINAMIDE] | 25% | 21 | 25 | 19% | 15 | 35
7 | NNC(=O)c1ccncc1 [ISONIAZID] | 80% | 800 | 660 | 60% | 400 | 1300
8 | COc1nc2ccc(Br)cc2cc1[C@@H](c1ccccc1)[C@@](O)(CCN(C)C)c1cccc2ccccc12 [BEDAQUILINE] | 80% | 1 | 10 | 0% | 0.1 | 100
9 | OC(c1cc(C(F)(F)F)nc2c(C(F)(F)F)cccc12)C1CCCCN1 (centres undefined) [MEFLOQUINE] | 0% | 1.6 | 0.5 | 0% | 0.1 | 8
